Here are results for nine molecules from patent publication US12013390B2, “EBIV nucleic acid composition and application thereof” (Wuhan Institute of Virology, Chinese Academy of Sciences, priority 2022, dated 2024).

This data set concerns BHK-21 cells. Briefly: Cell viability per well (percentage of cells remaining) observed under a microscope in the drug screening test. The class given is cell-based, hamster. The following applies: infected BHK-21 cells with drug, 36 hours. As for the experimental part:
(1) A 96-well plate for BHK-21 cells was prepared. The cells were planked at 10^4 cells/well. The plate was cultured in a cell incubator with a temperature of 37° C. and a CO2 concentration of 5%. The drug screening test was conducted when the cells grew to 40-50%. The drug to be tested was dissolved in dimethyl sulfoxide. Then the drug was diluted to 100 μM with DMEM medium containing 2% FBS. After that, the drug was subjected to serial 2-fold dilution to obtain the dilution gradient with the concentration of 100 μM, 50 μM, 25 μM, 12.5 μM, 6.25 μM, 3.125 μM, and 1.5625 μM, respectively (the concentration of DMSO in the diluted drug shall be <0.1%).
(2) The original culture medium was removed from the 96-well plate. The virus was inoculated into the 96-well plate at an MOI of 0.01 and a volume of 100 μL/well. At the same time, the diluted drugs to be tested were respectively added into the same 96-well plate at 100 μL/well and mixed well with the virus solution. The plate was incubated in a cell incubator with a temperature of 37° C. and a CO2 concentration of 5% for 36 hours before detection.
(4) Cell viability per well (and the percentage of cells remaining per well) was observed under a microscope and the half-maximal effect concentration (EC50) of the drug was calculated using GraphPad Prism 9 software and an EC50 graph was plotted.

`CC(C)=CCC(OC(=O)C=C(C)C)C1=CC(=O)c2c(O)ccc(O)c2C1=O` (stereo not drawn) [Beta, beta-dimethyl acryl shikonin] came in with a Cell viability of 70%.

`C[C@@]12C(=O)OC(=O)[C@]1(C)[C@H]1CC[C@@H]2O1` [Cantharidin] gave a Cell viability of 50%.

In the case of `C[C@H](CCC(=O)O)[C@H]1CC[C@H]2[C@@H]3[C@H](O)C[C@@H]4C[C@H](O)CC[C@]4(C)[C@H]3CC[C@]12C` [Chenodeoxycholic acid, reference compound], the Cell viability was 70%.

In turn, `COc1ccc(-c2cc(=O)c3c(O)cc(O[C@@H]4O[C@H](CO[C@@H]5O[C@@H](C)[C@H](O)[C@@H](O)[C@H]5O)[C@@H](O)[C@H](O)[C@H]4O)cc3o2)cc1O` [Diosmin, reference compound] came in with a Cell viability of 100%. Also, the Cell viability (listed as diosmin) worked out at 100%.

`Oc1cc(O)c2c(c1)O[C@H](c1cc(O)c(O)c(O)c1)[C@H](O)C2` [Epigallocatechol] yielded a Cell viability of 0%.

Molecule `CC(C)=CCc1c(O)ccc(C(=O)/C=C/c2ccc(O)cc2)c1O` [Isobavachalcone] displayed a Cell viability of 30%.

`CC(C)=CCc1cc2c(cc1O)oc(=O)c1c3ccc(O)cc3oc21` [Psoralidin] yielded a Cell viability of 50%.

In the case of `C=C[C@H]1[C@H](O[C@@H]2O[C@H](CO)[C@@H](O)[C@H](O)[C@H]2O)OC=C(C(=O)OC)[C@H]1CC(=O)O` [Secoxyloganin], the Cell viability worked out at 100%. For the setting “listed as secoxyloganin”, this molecule showed a Cell viability of 100%.

Clinodiside Aogenin A had a Cell viability of 100%. The Cell viability (listed as clinodiside A) is listed as 100%.
